From patent publication US20060167006A1, “Method of treatment” (priority 2003, published 2006)
“And” between values parts separate entries of the source, which are not always exact repeats. Equal values may be shown once. “Also recorded” adds a separate entry of the source. Read-outs that look alike come from different tables or passages of the source.

Columns and labels:
TAKA-1 cells = assay: MTT cell growth assay, TAKA-1 cells (Example 1); type: cell-based, Syrian golden hamster; conditions: 72 h
Text: (§1) Cell culture and proliferation assay: The following materials are purchased: FCS, RPMI and Dulbecco's modified Eagle medium (DMEM), trypsin-EDTA solution, penicillin-streptomycin solution from Biochrom K G (Berlin, Germany). All the other reagents are from Sigma Chemical Co. (St. Louis, Mo., USA). ASPC-1, MIA PaCA-2, human pancreatic cell lines are obtained from American Type Culture Collection (Rockville, Md.). Compound I is kindly provided by Novartis Pharma AG (Basel, Switzerland). T3M4 human pancreatic cell lines are a gift from Dr. R. S. Metzgar (Durham, N.C., USA). TAKA-1 immortalized Syrian golden hamster pancreatic ductal cells are a gift from Prof. P. Pour (University of Nebraska, Omaha, Nebr., USA). Human pancreatic cancer cell lines are routinely grown in DMEM (MIA-PaCA-2) or RPMI (ASPC-1, T3M4) supplemented with 10% FCS, 100 U/ml penicillin and 100 μg/ml streptomycin (complete medium).
TAKA-1 cells are grown in RPMI supplemented with 10% FCS, 100 U/ml penicillin and 100 μg/ml streptomycin. Cells are seeded overnight at a density of 5000 cells/well in 96-well plates and the proliferation assay is performed as described above. […] After 72 hours, 3-(4,5-methylthiazol-2-yl)-2,5-diphenyl-tetrazolium bromide (MTT) is added (50 μg/well) for 4 hours. Cellular MTT is solubilized with acidic isopropanol and the optical density is measured at 570 nm using a plate reader (Dynatech MR 7000). All experiments are performed in triplicates.
Statistical analysis: Results are expressed as mean±SD. For statistical analysis, the Student t-test is used. Significance is defined as p<0.05.

ASPC-1 cells [1] = assay: MTT cell growth assay, ASPC-1 cells (Example 1); type: cell-based, human
Text: as §1
(§2) TAKA-1 cells are grown in RPMI supplemented with 10% FCS, 100 U/ml penicillin and 100 μg/ml streptomycin. Cells are seeded overnight at a density of 5000 cells/well in 96-well plates and the proliferation assay is performed as described above. […] Cellular MTT is solubilized with acidic isopropanol and the optical density is measured at 570 nm using a plate reader (Dynatech MR 7000). […]
(§3) Statistical analysis: Results are expressed as mean±SD. […]

MIA PaCA-2 cells = assay: MTT cell growth assay, MIA PaCA-2 cells (Example 1); type: cell-based; conditions: Homo sapiens, MIA PaCa-2, 72 h, Mia-Paca-2, 75 μM Compound I, read-out: Percent growth inhibition by comparison with control cell growth
Text: as §1, §2, §3

T3M4 cells [2] = assay: MTT cell growth assay, T3M4 cells (Example 1); type: cell-based, human
Text: as §1, §2, §3

[3] = tested on: TAKA-1 cells and the three pancreatic cancer cell lines; assay: MTT cell growth assay, span over all four lines (Example 1); type: cell-based; conditions: span over TAKA-1 and three pancreatic cancer cell lines
Text: as §1, §2, §3

ASPC-1 cells [4] = assay: GI50 by MTT assay, Aspc-1 (Example 2); type: cell-based; conditions: Homo sapiens, ASPC1, read-out: GI50 concentration
Text: (§4) Material and Methods: RPMI-1640 DMEM, trypsin-EDTA, and penicillin-streptomycin are purchased from Invitrogen (Karlsruhe, Germany); FBS from PAN Biotech (Aidenbach, Germany); human recombinant PDGF, IGF-1 and FGF-2 from R&D Systems (Abingdon, United Kingdom), and EGF from Upstate Biotechnology (Hamburg, Germany). Phospho-PDGFR-beta (tyr857) and P-EGFR (tyr1173) polyclonal antibodies are purchased from Santa Cruz Biotechnology, Inc. (Santa Cruz, Calif., USA). Phospho-p44/42 MAPK (Thr202/Tyr204) antibodies are purchased from Cell Signaling Technology (Frankfurt, Germany), anti-rabbit IgG HRPO-linked antibodies and ECL immunoblotting detection reagents from Amersham Biosciences (Amersham Life Science, Amersham, UK), and anti-goat IgG-HPRO peroxidase linked antibodies from Santa Cruz Biotechnology, Inc. (Santa Cruz, Calif., USA). Complete mini-EDTA-free protease inhibitor cocktail tablets and Annexin-V-Fluos are purchased from Roche GmbH (Mannheim, Germany). All other reagents are from Sigma Chemical Company (Taufkirchen, Germany).
(§5) Cell culture and MTT assay: Human pancreatic cancer cell lines are routinely grown in DMEM (Colo-357 and Mia-PaCa-2) or RPMI (Aspc-1, BxPc-3, Capan-1, and T3M4) supplemented with 10% FBS, 100 U/ml penicillin, and 100 μg/ml streptomycin (complete medium). […] Formazan products are solubilized with acidic isopropanol, and the optical density is measured at 570 nm. […]

BxPc-3 cells = assay: GI50 by MTT assay, BxPc-3 (Example 2); type: cell-based; conditions: Homo sapiens, BxPc-3, complete medium (10% FBS), 48 h, read-out: GI50 concentration
Text: as §4, §5

Capan-1 cells = assay: GI50 by MTT assay, Capan-1 (Example 2); type: cell-based; conditions: Homo sapiens, Capan-1, complete medium (10% FBS), 48 h, read-out: GI50 concentration
Text: as §4, §5

Colo-357 cells = assay: GI50 by MTT assay, Colo-357 (Example 2); type: cell-based; conditions: Homo sapiens, COLO357, Colo-357, complete medium (10% FBS), 48 h, read-out: GI50 concentration
Text: as §4, §5

Mia-PaCa-2 cells [5] = assay: GI50 by MTT assay, Mia-PaCa-2 (Example 2); type: cell-based; conditions: Homo sapiens, read-out: GI50 concentration
Text: as §4, §5

T3M4 cells [6] = assay: GI50 by MTT assay, T3M4 (Example 2); type: cell-based; conditions: Homo sapiens, T3M4, complete medium (10% FBS), 48 h, read-out: GI50 concentration
Text: as §4, §5

[7] = tested on: six tested pancreatic cancer cell lines; assay: GI50 by MTT assay, span over all six pancreatic cancer cell lines; type: cell-based; conditions: Homo sapiens, read-out: GI50 concentration, range over cell lines
Text: as §4, §5

Mia-PaCa-2 cells [8] = assay: Propidium iodide staining of cell death, Mia-PaCa-2; type: cell-based, human; conditions: Mia-PaCa-2, Compound I at GI50, 1% FBS medium; control 10.7% ±2.5%
Text: (§6) The resulting DNA histograms are interpreted using the Cell Quest Pro software (Becton Dickinson and Company, New York, USA).

T3M4 cells [9] = assay: Propidium iodide staining of cell death, T3M4; type: cell-based, human; conditions: T3M4, Compound I at GI50, 1% FBS medium; control 5.7% ±2.8%
Text: as §6

[10] = tested on: pancreatic cancer cell lines; assay: FACS cell cycle analysis; type: cell-based, human; conditions: 48 hours of incubation, Compound I at GI50, compared to untreated cells
Text: as §6

Mia-PaCa-2 cells [11] = assay: Growth factor-induced proliferation (MTT), Mia-PaCa-2; type: cell-based, human; conditions: MTT
Experimental: (§7) Cell culture and MTT assay: Human pancreatic cancer cell lines are routinely grown in DMEM (Colo-357 and Mia-PaCa-2) or RPMI (Aspc-1, BxPc-3, Capan-1, and T3M4) supplemented with 10% FBS, 100 U/ml penicillin, and 100 μg/ml streptomycin (complete medium). To assess cell proliferation, the MTT test is employed. […] After 48 or 72 hours of incubation, 3-(4,5-methylthiazol-2-yl)-2,5-diphenyl-tetrazolium bromide (MTT) is added (50 μg/well) for 4 hours. Formazan products are solubilized with acidic isopropanol, and the optical density is measured at 570 nm. […] All experiments are performed in triplicate.
(§8) EGF-induced proliferation of both Mia-PaCa-2 and T3M4 cell lines in a dose-dependent manner is seen with maximal effects of +72% ±7.5% (Mia-PaCa-2) and +52% ±23% (T3M4). […] FGF-2 markedly stimulates cell growth in Mia-PaCa-2 cell lines with maximal effects of +79% ±6%, and only slightly stimulated T3M4 cell lines, with maximal effects of +7% ±4%. […] Both cell lines are less sensitive to IGF-1 stimulation compared with EGF and FGF-2, with maximal effects of +24% ±2% in Mia-PaCa-2 and +17% ±4% in. T3M4.

T3M4 cells [12] = assay: Growth factor-induced proliferation (MTT), T3M4; type: cell-based, human; conditions: MTT
Experimental: as §7, §8

MAPK = assay: Western blot of MAPK phosphorylation in growth factor-conditioned cells; type: cell-based, human; conditions: growth factor-conditioned Mia-PaCa-2 and T3M4 cells, Western blot
Experimental: (§9) Western blot analysis: Cell culture monolayers are washed twice with ice-cold PBS and lysed with buffer containing Tris-HCl (50 mM, pH 7.4), NP-40 (1%), Na-deoxycholate (0.25%), NaCl (150 mM), EDTA (1 mM), PMSF (1 mM), Na3VO4 (1 mM), NaF (1 mM) and one tablet of complete mini-EDTA-free protease inhibitor cocktail (in 10 ml buffer). Protein concentration is determined by the BCA protein assay (Pierce Chemical Co., Rockford, Ill., USA). 30 μg of cell lysates are separated on SDS-polyacrylamide gels and electroblotted onto nitrocellulose membranes. Membranes are then incubated in blocking solution (5% nonfat-milk in 20 mM Tris-HCl, 150 mM NaCl, 0.1% Tween-20) (TBS-T), followed by incubation with the indicated antibodies at 4° C. overnight. The membranes are then washed in TBS-T and incubated with HRPO-conjugated secondary antibodies for 1 hour at room temperature. Antibody detection is performed with an enhanced chemiluminescence reaction. Statistical analysis: Results are expressed as mean±SEM. For statistical analysis, the Student's t-test is used. Significance is defined as p<0.05.

EGFR = biological target: T1, EGFR (Homo sapiens, UniProt P00533); assay: Western blot of EGFR phosphorylation in growth factor-conditioned cells; type: cell-based; conditions: growth factor-conditioned Mia-PaCa-2 and T3M4 cells
T1 construct: endogenous in cells; host or cells: Mia-PaCa-2 and T3M4 pancreatic cancer cells
T1 sequence (P00533 25-1210): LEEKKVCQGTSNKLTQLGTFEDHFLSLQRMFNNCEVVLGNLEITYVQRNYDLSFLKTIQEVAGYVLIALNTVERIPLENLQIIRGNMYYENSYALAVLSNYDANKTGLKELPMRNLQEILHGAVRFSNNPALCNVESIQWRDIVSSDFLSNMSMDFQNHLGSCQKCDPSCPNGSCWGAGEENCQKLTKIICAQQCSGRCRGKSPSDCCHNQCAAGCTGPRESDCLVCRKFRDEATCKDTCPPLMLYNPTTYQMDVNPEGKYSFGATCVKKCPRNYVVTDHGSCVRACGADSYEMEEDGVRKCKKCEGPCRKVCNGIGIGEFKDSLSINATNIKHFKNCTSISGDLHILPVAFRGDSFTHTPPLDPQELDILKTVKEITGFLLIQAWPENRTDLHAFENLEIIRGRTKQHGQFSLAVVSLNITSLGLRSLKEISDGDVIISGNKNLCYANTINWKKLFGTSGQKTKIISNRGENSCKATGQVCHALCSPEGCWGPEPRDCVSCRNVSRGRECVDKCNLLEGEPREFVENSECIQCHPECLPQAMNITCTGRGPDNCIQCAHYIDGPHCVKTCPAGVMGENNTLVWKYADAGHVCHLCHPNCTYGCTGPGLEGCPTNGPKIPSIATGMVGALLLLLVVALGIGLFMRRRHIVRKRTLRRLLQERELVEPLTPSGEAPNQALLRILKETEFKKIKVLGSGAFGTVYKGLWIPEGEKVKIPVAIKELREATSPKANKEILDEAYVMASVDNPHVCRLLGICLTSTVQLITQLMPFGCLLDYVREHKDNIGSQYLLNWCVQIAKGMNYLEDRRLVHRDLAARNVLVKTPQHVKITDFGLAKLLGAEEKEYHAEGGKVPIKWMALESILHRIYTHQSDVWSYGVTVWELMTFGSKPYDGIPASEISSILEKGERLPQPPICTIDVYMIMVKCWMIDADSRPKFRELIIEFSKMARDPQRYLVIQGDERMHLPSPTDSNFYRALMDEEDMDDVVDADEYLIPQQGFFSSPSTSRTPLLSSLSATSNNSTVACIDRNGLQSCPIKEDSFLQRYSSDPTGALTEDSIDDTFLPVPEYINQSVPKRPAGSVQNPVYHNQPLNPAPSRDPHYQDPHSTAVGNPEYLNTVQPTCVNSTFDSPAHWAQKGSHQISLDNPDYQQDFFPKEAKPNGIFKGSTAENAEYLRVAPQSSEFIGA
Experimental: as §9

pancreatic tumor cells = conditions: complete medium (10% FCS) and 1% FCS medium
Text: as §6

[13] = tested on: Lung cancer (6 cell lines); conditions: other reported cancer cells, read-out: GI50 concentration; cited from earlier work
[14] = tested on: Lung cancer (A549 cell line); conditions: other reported cancer cells, read-out: GI50 concentration; cited from earlier work
colorectal cancer (HT29) = conditions: other reported cancer cells, read-out: GI50 concentration; cited from earlier work
CML (K562 cell lines) = conditions: other reported cancer cells, read-out: GI50 concentration; cited from earlier work

In the case of `Cc1ccc(NC(=O)c2ccc(CN3CCN(C)CC3)cc2)cc1Nc1nccc(-c2cccnc2)n1` [Compound I], the inhibition at 25 µM (TAKA-1 cells; Mesocricetus auratus, TAKA-1, 25 μM Compound I, read-out: Percent growth inhibition by comparison with control cell growth) is reported as 70.9%, the inhibition at 75 µM (TAKA-1 cells; Mesocricetus auratus, TAKA-1, 75 μM Compound I, read-out: Percent growth inhibition by comparison with control cell growth) is reported as 90.8% and the “Percent growth inhibition by comparison with control cell growth” value (from here on “Percent growth inhibition by comparison”) (TAKA-1 cells; TAKA-1, 25 μM Compound I, 25 µM) is reported as −65% and −67.9%. For the same molecule, the “Percent growth inhibition by comparison” value (TAKA-1 cells; TAKA-1, 75 μM Compound I, 75 µM) was −91.5% and −90.6%, the “Percent growth inhibition by comparison” value (ASPC-1 cells [1]; Aspc-1, 5 μM Compound I, 72 h, 5 µM) was −12.9% and −4.8% and −3.7% and the inhibition at 75 µM (ASPC-1 cells [1]; Homo sapiens, ASPC1, 72 h, Aspc-1, 75 μM Compound I, read-out: Percent growth inhibition by comparison with control cell growth) was 85.6%. For the same molecule, the inhibition at 75 µM (MIA PaCA-2 cells) was 86.6%, the inhibition at 75 µM (T3M4 cells [2]; Homo sapiens, T3M4, 72 h, T3M4, 75 μM Compound I, read-out: Percent growth inhibition by comparison with control cell growth) was 85.6% and the “Percent growth inhibition by comparison” value (T3M4 cells [2]; T3M4, 5 μM Compound I, 72 h, 5 µM) was −12.9% and −4.8% and −3.8%. The “Minimal threshold effects on cell growth” value ([3]; 5 μM Compound I, p>0.05) was −4% to −9, the “Maximal inhibitory effects on cell growth” value ([3]; 75 µM Compound I, p<0.001) was −77% to −90 and the GI50 (ASPC-1 cells [4]; Aspc-1, complete medium (10% FBS), 48 h, MTT) was 31.5 µM. The GI50 (ASPC-1 cells [4]; Aspc-1, low serum conditions (1% FCS)) was 20 µM, the GI50 (BxPc-3 cells) was 21 µM and the GI50 (Capan-1 cells) was 19 µM. It also gave a GI50 (Colo-357 cells) of 17 µM, a GI50 (Mia-PaCa-2 cells [5]; Mia-PaCa-2, complete medium (10% FBS), 48 h, MTT) of 26 µM and a GI50 (Mia-PaCa-2 cells [5]; Mia-PaCa-2, low serum conditions (1% FCS)) of 9 µM. The GI50 (T3M4 cells [6]) was 25 µM, the GI50 ([7]; all six pancreatic cancer cell lines, 10% FBS/FCS medium) was 17 to 31.5 µM and the GI50 ([7]; pancreatic cancer cell lines, low serum conditions (1% FCS)) was 9 to 20 µM. The “Cell death by propidium iodide staining” value (Mia-PaCa-2 cells [8]) was 33.7±16.5%, the “Cell death by propidium iodide staining” value (T3M4 cells [9]) was 26.8% +16.5 and the “Change in cell cycle pattern” value [10] was “does not reveal any significant changes in the cell cycle pattern; also recorded: no cell cycle change”. The “Inhibitory effect on IGF-1-induced proliferation” value (Mia-PaCa-2 cells [11]; Mia-PaCa-2, IGF-1 plus Compound I at GI50, 72 hours) was “no significant inhibitory effects”, the “Inhibitory effect on IGF-1-induced proliferation” value (T3M4 cells [12]; T3M4, IGF-1 plus Compound I at GI50, 72 hours) was “no significant inhibitory effects” and the “Inhibition of MAPK activation” value (MAPK) was “does not inhibit activation”. For the same molecule, the “Inhibition of EGFR activation” value (EGFR) was “does not inhibit activation”, the Apoptotic cell death (pancreatic tumor cells) was “No apoptotic cell death is observed” and the GI50 [13] was ~5 µM. The GI50 [14] was 2 to 3 µM, the GI50 (colorectal cancer (HT29)) was 6 µM and the GI50 (CML (K562 cell lines)) was 0.56 µM.
For “EGF: epidermal growth factor, EGF from Upstate Biotechnology”, the “Maximal effect of growth factor on cell growth” value (Mia-PaCa-2 cells [11]; Mia-PaCa-2, growth factor alone (absence of Compound I), 72 hours) was “+72% ±7.5” and the “Maximal effect of growth factor on cell growth” value (T3M4 cells [12]; T3M4, growth factor alone (absence of Compound I), 72 hours) was “+52% ±23”.
